Consider one compound from patent US9133521B2, “Composition for diagnosing Alzheimer's disease using methylation status of HMOX1 gene and method for diagnosing Alzheimer's disease using the same” (Ewha University—Industry Collaboration Foundation, priority 2012, dated 2015).

The subject of this experiment is HMOX1 expression in H4 cell line. Description: HMOX1 gene expression by qRT-PCR in H4 cell line treated with 5-aza-2′-deoxycytidine. It is filed as cell-based, human. The note with it: normal H4 cell line, 10 μM for 3 days, normalized to GAPDH. The protocol: Human neuroglioblastoma cell line, H4 was cultured in a Dulbecco's modified Eagle medium containing 10% fetal bovine serum, 100 U/mL penicillin, 100 μg/mL streptomycin and 2 mM L-glutamine, and APP695-Swedish mutant (K595N/M596L)-expressing Alzheimer's disease model cell line, H4-sw was cultured in the H4 culture medium supplemented with 500 μg/mL geneticine.
Total RNAs were extracted from the cell line and the brain tissues using an RNeasy mini kit (Qiagen). The extraction method was performed according to the manufacturer's manual. The extracted total RNAs were quantified using a spectrophotometer, and RNA degradation was examined by electrophoresis in a 1% agarose gel.
For cDNA synthesis, Superscript II reverse transcriptase (Invitrogen) was used. 1 μg of total RNA and 50 ng of oligo dT were denatured at 70° C. for 10 minutes, and then a reaction mixture of 4 μA of 5×RT buffer, 2 μA of […], 4 μA of 2.5 mM dNTP mixture, 200 units of Superscript II reverse transcriptase, 10 units of RNase inhibitor was added thereto. 20 μA of the reaction mixture was reacted at 25° C. for 10 minutes, at 42° C. for 50 minutes, and at 95° C. for 5 minutes for cDNA synthesis. The product was diluted at 1:4, and 2 μA thereof was used as a template of qRT-PCR. […]

With `Nc1ncn([C@H]2C[C@H](O)[C@@H](CO)O2)c(=O)n1` [5-aza-2′-deoxycytidine], the HMOX1 expression result was “increased”.
